According to BindingDB's records for PubMed 40053382 (Sapienza University of Rome):
pIC50: −log10 of the molar value.

Tests used:
[1] = Inhibition of HIV-1 integrase strand transfer activity
[2] = Inhibition of wild type HIV-1 LAI reverse transcriptase
[3] = Inhibition of HIV-1 Reverse transcriptase K103N/Y181C double mutant
[4] = Inhibition of HIV-1 Reverse transcriptase K103N mutant
[5] = Inhibition of HIV-1 Reverse transcriptase L100I/K103N double mutant

SMILES | pIC50 [1] | pIC50 [2] | pIC50 [3] | pIC50 [4] | pIC50 [5]
CCc1nc(SC)n(COCc2ccccc2)c1CC1CCCCC1 | 6.40 | – | – | – | –
CCOCn1c(SC)nc(C(C)C)c1CC1CCCCC1 | 6.60 | – | – | – | –
CSc1nc(C(C)C)c(CC2CCCCC2)n1COCc1ccccc1 | 6.59 | – | – | – | –
CSc1nc(C(C)C)c(Cc2ccccc2)n1COCc1ccccc1 | 5.48 | – | – | – | –
Cc1cc(C#N)cc(C)c1Nc1ncnc(Nc2ccc(C#N)cc2)n1 | – | 9.40 | 7.49 | 9.40 | –
Cc1cc(C#N)cc(C)c1Oc1ncnc(Nc2ccc(C#N)cc2)n1 | – | 8.85 | 7.60 | 8.85 | 7.31
Cc1cc(/C=C/C#N)cc(C)c1Nc1ncnc(Nc2ccc(C#N)cc2)n1 | – | 9.40 | 9.00 | 9.52 | –
